# Experimental data as given in US20050239873A1 (priority 1999, published 2005).
# Several values for one entry are separate records, joined by “and”; a condition that tells them apart may be missing. Equal values may be shown once.
# Legend:
# [1] = test system: TAMH vector-only control cells; test: Cytotoxicity (Alamar Blue); type: cell-based, murine; settings: 24 h
# Procedure: (§1) TAMH cells were transfected with DNA encoding each of the mutant BCl-xL proteins by lipofection (See Example 1 for method). For analysis of BCl-xL expression, 20 μg of cell protein was separated by 20% SDS-PAGE and transferred to nitrocellulose membranes. Immunodetection of BCl-xL was carried out using rabbit anti-Bcl-xL antibody and Protein A/horseradish peroxidase conjugate, followed by chemiluminescent detection. Cells were grown to about 80% confluence in 96-well plates followed by addition of 100 μl of 2X AA1 or staurosporine (STS) solution in complete medium. STS is a natural product originally isolated from the bacterium Streptomyces and found to be capable of inducing apoptosis in certain cells and which induction of apoptosis could be blocked by the expression of a Bcl-2 family protein. Cell viability was determined spectrophotometrically after 24 h treatment as the ratio of reduced and oxidized Alamar Blue (BIOSOURCE) at 570 nm and 600 nm, respectively. All results were normalized against DMSO controls. LD50 values were calculated by non-linear regression analysis using Prism software (Graphpad).
# [2] = test system: TAMH cells over-expressing Bcl-xL WT; test: Cytotoxicity (Alamar Blue) in Bcl-xL transfectants; type: cell-based, murine; settings: 24 h
# Procedure: as §1
# [3] = test system: TAMH cells over-expressing Bcl-xL F146L; test: Cytotoxicity (Alamar Blue) in Bcl-xL transfectants; type: cell-based, murine; settings: 24 h
# Procedure: as §1
# [4] = test system: TAMH cells over-expressing Bcl-xL E92L; test: Cytotoxicity (Alamar Blue) in Bcl-xL transfectants; type: cell-based, murine; settings: 24 h
# Procedure: as §1
# [5] = test system: TAMH cells over-expressing Bcl-xL A142L; test: Cytotoxicity (Alamar Blue) in Bcl-xL transfectants; type: cell-based, murine; settings: 24 h
# Procedure: as §1
# [6] = test system: TAMH cells over-expressing Bcl-xL F97W; test: Cytotoxicity (Alamar Blue) in Bcl-xL transfectants; type: cell-based, murine; settings: 24 h
# Procedure: as §1
# [7] = test system: mitochondria with normal levels of Bcl-xL expression; test: JC-1 membrane potential of isolated mitochondria; parameters: species or system murine
# Procedure: Isolated mitochondria were loaded with JC-1 prior to treatment, and mitochondrial labeling was determined using FACS. […] Antimycin A-treated mitochondria with high levels of Bcl-xL had lower levels of JC-1 staining than parallel samples treated with CCCP. Uncoupled mitochondria still retain a significant Donnan potential because of trapped anionic species and it is likely that antimycin-induced PT and/or swelling of mitochondria led to a further reduction of this residual potential.
# As observed for the parent compound, antimycin A3, mitochondria with normal levels of BCl-xL expression were not affected by the 2-methoxy analog.
# [8] = target: T1, recombinant human Bcl-2ΔC22 (Homo sapiens, UniProt P10415); test: Antimycin A3 fluorescence binding and competition assay
# T1 construct: poly-His (N); made in house
# Procedure: In this assay, 0 to 5 μM antimycin A3 (Sigma Chemical Co., St. Louis, Mo.) was added to a physiological buffer (50 mM Tris-HCl pH 8.0, 0.2 M NaCl, 2 mM EDTA, 0.5% v/v glycerol) containing recombinant Bcl-2 or BCl-xL protein under conditions that permitted antimycin A3 to bind to the BH3-binding domain of Bcl-2 or BCl-xL (22.5° C. on a Hitachi F-2500 fluorescence spectrofluorimeter equipped with a thermostatted cell holder). […] The excitation wavelength was 335 nm, and the maximum emission wavelength for antimycin A3 was 428 nm with a slit width of 10 nm. The samples were mixed in a quartz cuvette and checked for inner filter effect over the concentration range of antimycin A3 used for this study. Blanks containing antimycin A3 at the same concentration as the experimental samples were used as controls in all measurements and necessary background corrections were made.
# Recombinant human Bcl-2ΔC22 (a recombinant human Bcl-2 with a delection of 22 amino acid residue membrane anchor sequence from the carboxyl end) and mouse Bcl-xLΔC20 (a recombinant murine BCl-xL with a delection of the 20 amino acid residue membrane anchor sequence from the carboxyl end) fused with poly-His at the N-terminus were chromatographically purified to homogeneity. The concentrations of antimycin A3 and stock solutions of recombinant proteins were quantitated using an extinction coefficient of 7.24/mM/cm at 320 nm and by Bradford assay, respectively. The stoichiometric ratio of antimycin A3 and Bcl-2 producing the maximal change in antimycin A3 fluorescence was determined with incremental addition of antimycin A3 to a 1.98 μM solution of recombinant Bcl-2 in a volume of 2.1 milliliters. […] For peptide displacement experiments, a solution of 2 μM antimycin A3 and 3 μM Bcl-2 was allowed to reach binding equilibrium at 4° C. prior to fluorescence measurements. Native peptide corresponding to the BH3 domain of Bak (72-[…]87 (SEQ ID NO:1)) or a mutant peptide with a single amino acid change (Leu78Ala-BH3) was added to the solution and the fluorescence measurements were repeated. […]
# [9] = test system: TABX2S cells (over-expressing Bcl-xL); test: cells; settings: for difference in sensitivity of the two cell lines: TABX2S vs TABX1A
# Source text: (§2) Briefly, a DNA fragment encoding the full-length mouse BCl-xL cDNA was isolated from the plasmid PBS.BCL-xL (Tzung et al., Am. J. Path. 150:1985-1995, 1997, incorporated herein by reference in its entirety) by digestion with the restriction endonuclease EcoRI. This EcoRI fragment was cloned into the EcoRI site of the mammalian expression vector pSFFV (Fuhlbrigge et al., Proc. Nat. Acad. Sci. USA 85:5649-5653, 1988) in both sense and antisense orientations, to form expression plasmids pSFFV.Bcl-xL(sense) or pSFFV.Bcl-xL(antisense), respectively. The tumorigenic murine hepatocyte cell line TAMH was transfected by lipofection (Lipofectamine, Life Technologies, Rockville, Md., according to the manufacturer's recommendations) with the plasmids pSFFV.neo (the control), pSFFV.Bcl-xL(sense) or pSFFV.Bcl-xL(antisense). […] Transfectants were selected for the acquisition of neomycin resistance by growing cells in the presence of 750 μg/ml of G418. Bulk transfectants were cloned by limiting dilution and individual clones were screened by immunoblot analysis to determine the level of BCl-xL protein expression as described below.
# Selected transfectants were then tested for whole cell sensitivity to several apoptotic agents. Transfected cells were cultured to reach approximately 80% confluency prior to plating an equal number of cells from selected clones on 12-well tissue culture plates. The transplanted cells were treated with the following apoptotic agents: 5 μM doxorubicin for 48 hours; 5 μM cisplatin for 48 hours; or with 200 U/ml tumor necrosis factor (TNF) plus 1 μg/ml actinomycin D for 18 hours. Cell viability was determined by trypan blue dye exclusion. The percentage of viable cells was calculated by the number of viable cells (treated with a particular apoptogenic agent) divided by the number in the control group (untreated).
# TABX2S cells and TABX1A cells were also examined for the effects of various mitochondrial inhibitors. […] Azide was diluted from an aqueous stock solution. […] Controls received an equivalent concentration of diluent. At various time points after drug treatment, cells were trypsinized, and cell viability was determined by trypan blue dye exclusion. The number of viable cells were counted and normalized to control group (i.e., % control=number of viable cells (treated group)/number of viable cells (control group)×100).
# TAMH.neo cells (control) = test: Cell viability by trypan blue dye exclusion; settings: Mus musculus, 48 h, read-out: cells remained viable
# Source text: as §2
# (§3) Selected transfectants were then tested for whole cell sensitivity to several apoptotic agents. Transfected cells were cultured to reach approximately 80% confluency prior to plating an equal number of cells from selected clones on 12-well tissue culture plates. […] Cell viability was determined by trypan blue dye exclusion. The percentage of viable cells was calculated by the number of viable cells (treated with a particular apoptogenic agent) divided by the number in the control group (untreated).
# (§4) TABX2S cells and TABX1A cells were also examined for the effects of various mitochondrial inhibitors. […] At various time points after drug treatment, cells were trypsinized, and cell viability was determined by trypan blue dye exclusion. The number of viable cells were counted and normalized to control group (i.e., % control=number of viable cells (treated group)/number of viable cells (control group)×100).
# [10] = test system: TABX1A cells (under-expressing Bcl-xL); test: Cell viability by trypan blue dye exclusion; settings: Mus musculus, 48 h, read-out: cells remained viable
# Source text: as §2, §3, §4
# RPMI-8226 = test: Propidium iodide exclusion / flow cytometry cytotoxicity; type: cell-based, human; settings: oligomycin 2-10 mg/ml, rotenone 0.5-2.5 mg/ml
# Procedure: (§5) Cell survival was assayed by exclusion of propidium iodide (PI; 10 μg/ml) by unfixed cells. Annexin V-FITC (Pharmingen) or 3, 3′-dihexyloxacarbocyanine iodide (DiOC6(3); Molecular Probes) staining was analyzed together with PI to discriminate early apoptotic cells. Apoptotic cells were also measured as sub-G1 events among ethanol-fixed cells stained with 10 μg/ml PI. All cell samples were analyzed using a benchtop FACSCalibur™ (Becton Dickinson, San Jose, Calif.). Flow data were analyzed using MultiCycle AV software (Phoenix Flow Systems). For intracellular pH measurements, cell pellets were washed once and resuspended in 2 ml of HEPES-buffered medium (no phenol red and no serum). Carboxy-SNARF-1-AM (Molecular Probes, 1 mM stock in DMSO, stored at −20° C.) was added to a final concentration of 10 μM, and the cells were incubated for 30 min at 37° C. Following incubation with SNARF, cells were sedimented and the pellets were held on ice. Immediately before analysis, pellets were resuspended in […] (HBSS; experimental buffer) or high-[K+] buffer containing nigericin (calibration samples).
# NCI-H929 = test: as above; type: cell-based, human; settings: oligomycin 2-10 mg/ml, rotenone 0.5-2.5 mg/ml
# Procedure: as §5
# U266 = test: as above; type: cell-based, human; settings: oligomycin 2-10 mg/ml, rotenone 0.5-2.5 mg/ml
# Procedure: as §5
# T1 sequence (P10415 1-217 limits assumed, stated change not applied): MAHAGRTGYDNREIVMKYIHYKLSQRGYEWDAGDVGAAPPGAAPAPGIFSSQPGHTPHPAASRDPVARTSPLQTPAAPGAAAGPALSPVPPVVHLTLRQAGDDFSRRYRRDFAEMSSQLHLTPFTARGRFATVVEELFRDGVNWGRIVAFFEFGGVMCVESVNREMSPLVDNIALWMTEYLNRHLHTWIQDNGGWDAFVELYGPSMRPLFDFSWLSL
compound,measurement,setting,value
"CN[C@@H]1C[C@H]2O[C@@](C)([C@@H]1OC)n1c3ccccc3c3c4c(c5c6ccccc6n2c5c31)C(=O)NC4 [STS, staurosporine]",Cytotoxicity LD50,[1],0.11 ± 0.01 µM
same,Cytotoxicity LD50,[2],0.58 ± 0.1 µM and 0.58 ± 0.14 µM
same,Cytotoxicity LD50,[3],0.38 ± 0.04 µM
same,Cytotoxicity LD50,[4],0.52 ± 0.12 µM
same,Cytotoxicity LD50,[5],0.49 ± 0.11 µM
same,Cytotoxicity LD50,[6],0.34 ± 0.10 µM
"CCCC[C@H]1C(=O)O[C@H](C)[C@H](NC(=O)c2cccc(NC=O)c2O)C(=O)O[C@@H](C)[C@@H]1OC(=O)CC(C)C [antimycin A3, reference compound]",mitochondrial depolarization (JC-1),[7],not affected
same,increase of intrinsic fluorescence at 428 nm in the presence of Bcl-2,[8],≤ 18%
COc1cccc2c1C(=O)c1c(O)c3c(c(O)c1C2=O)C[C@@](O)(C(=O)CO)C[C@@H]3O[C@H]1C[C@H](N)[C@H](O)[C@H](C)O1 [doxorubicin],viability at 5 µM,"[9]; Mus musculus, 48 h, read-out: cells remained viable",88%
same,viability at 5 µM,TAMH.neo cells (control),50%
same,viability at 5 µM,[10],20%
CC[C@H]1/C=C/C=C/C[C@@H](C)[C@H](O)[C@@](C)(O)C(=O)[C@@H](C)[C@H](O)[C@@H](C)C(=O)[C@@H](C)[C@H](O)[C@@H](C)/C=C/C(=O)O[C@@H]2[C@H](C)[C@H](CC1)O[C@]1(CC[C@H](C)[C@H](C[C@@H](C)O)O1)[C@H]2C [oligomycin],difference in sensitivity of the two cell lines,[9],no significant differences
same,cell killing by oxidative phosphorylation inhibitors,RPMI-8226,Only NCI-H929 cells were killed
same,cell killing by oxidative phosphorylation inhibitors,NCI-H929,killed
same,cell killing by oxidative phosphorylation inhibitors,U266,Only NCI-H929 cells were killed
C=C(C)[C@H]1Cc2c(ccc3c2O[C@@H]2COc4cc(OC)c(OC)cc4[C@@H]2C3=O)O1 [rotenone],difference in sensitivity of the two cell lines,[9],no significant differences
same,time until cell death apparent,"[9]; after treatment, TABX2S and TABX1A cells",six to eight
same,cell killing by oxidative phosphorylation inhibitors,RPMI-8226,none of the myeloma cell lines were killed
same,cell killing by oxidative phosphorylation inhibitors,NCI-H929,none of the myeloma cell lines were killed
same,cell killing by oxidative phosphorylation inhibitors,U266,none of the myeloma cell lines were killed
